Experimental data published in PubChem BioAssay (NCI).
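Method: 48-hour compound exposure of cells in 96-well plates, five concentrations, linear interpolation of endpoints. The concentration for full growth arrest is given as TGI.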

Key:
Test in all cases: NCI tumour cell line growth inhibition, 48 h
[1] = system: SF-268 CNS
[2] = system: SNB-19 CNS
[3] = system: NCI-H460 lung
[4] = system: HOP-92 NSCLC
[5] = system: HL-60(TB) leukemia
[6] = system: SK-MEL-2 melanoma
[7] = system: T-47D breast
[8] = system: SK-MEL-28 melanoma
[9] = system: CCRF-CEM leukemia
[10] = system: MDA-MB-435
[11] = system: IGROV1 ovarian
[12] = system: HT29 colon
[13] = system: HOP-62 NSCLC
[14] = system: 786-0 renal
[15] = system: OVCAR-8 ovarian
[16] = system: RXF 393 renal
[17] = system: K-562 leukemia
[18] = system: RPMI-8226 leukemia
[19] = system: HCT-116 colon
[20] = system: SW-620 colon
[21] = system: SF-295 CNS
[22] = system: COLO 205 colon
[23] = system: NCI-H23 lung
[24] = system: OVCAR-5 ovarian
[25] = system: DU-145 prostate
[26] = system: SK-MEL-5 melanoma
[27] = system: SK-OV-3 ovarian
[28] = system: UACC-62 melanoma
[29] = system: EKVX NSCLC
[30] = system: ACHN renal
[31] = system: A498 renal
[32] = system: NCI-H226 lung
[33] = system: MDA-MB-231 breast
[34] = system: SNB-75 CNS
[35] = system: A549 NSCLC
[36] = system: SN12C renal
[37] = system: MCF7 breast
[38] = system: SF-539 CNS
[39] = system: MOLT-4 leukemia
[40] = system: MDA-N
[41] = system: U251 CNS
[42] = system: OVCAR-4 ovarian
[43] = system: OVCAR-3 ovarian
[44] = system: BT-549 breast
[45] = system: NCI/ADR-RES ovarian
[46] = system: M14 melanoma
[47] = system: HCC-2998 colon
[48] = system: UO-31 renal
[49] = system: HS 578T breast
[50] = system: LOX IMVI melanoma
[51] = system: UACC-257 melanoma
[52] = system: NCI-H522 lung
[53] = system: MALME-3M melanoma
[54] = system: HCT-15 colon
[55] = system: KM12 colon
[56] = system: CAKI-1 renal
[57] = system: TK-10 renal
[58] = system: PC-3 prostate

Measured: TGI

Cc1ccc(S(=O)(=O)N2CCCN(S(=O)(=O)c3ccc(C)cc3)CCN(S(=O)(=O)c3ccc(C)cc3)CCCSCC2)cc1
not listed: [50] | [51] | [52] | [53] | [54] | [55] | [56] | [57] | [58]
> 100 µM: all other assays above

CS(=O)(=O)c1ccc(/C=N/NC(N)=S)cc1
not listed: [6] | [9] | [38]
> 100 µM: all other assays above
